Experimental data from US11613531B2, “Inhibitors of RHO associated coiled-coil containing protein kinase” (Kadmon Corporation, LLC, priority 2017, dated 2023).
Entries after “also recorded” stand apart in the source; their conditions may differ. Read-outs that look alike come from different tables or passages of the source.

What was measured:
[1] = target: Recombinant ROCK1 (amino acids 1-535) (Homo sapiens (Human), UniProt Q13464); assay: Z′-Lyte kinase assay, ROCK1; format: biochemical; settings: for inhibition at 0.5 µM: 0.5 μM compound
Outline: (§1)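 IC50s derive from nonlinear curve fits over a 9-point, 2-fold dilution series, with single-point inhibition at 1 μM expressed relative to DMSO. Activity of truncated human ROCK1 (residues 1-535) and ROCK2 (residues 1-552) measured with the Z′-Lyte kinase format.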

[2] = target: Recombinant ROCK2 (amino acids 1-552) (Homo sapiens (Human), UniProt O75116); assay: Z′-Lyte kinase assay, ROCK2; format: biochemical; settings: for inhibition at 0.5 µM: 0.5 μM compound; for inhibition at 1 µM: 1 μM compound
Outline: as §1

[3] = test system: ppMlc (T18/S19) levels in A7R5 cells; assay: A7R5 in-cell ELISA (pMLC); format: cell-based, Rat; settings: Rattus norvegicus, A7R5, A7R5 cells; for inhibition at 10 µM: 10 μM compound; for inhibition at 10 µM / inhibition at 1 µM: read-out: pMLC % inh A7R5 @ [conc]; for inhibition at 1 µM: 1 μM compound
Outline: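 Cellular IC50 came from a nonlinear regression fit of ppMlc (T18/S19) signal, read by colorimetric in-cell ELISA on fixed cells. Rat A7R5 aortic smooth muscle cells had been exposed for 90 min to compounds in 9-point 2-fold serial dilution, 24 h after seeding.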

[4] = test system: human ACTA2 gene promoter luciferase reporter in NIH3T3 cells; assay: NIH3T3 Acta2-promoter driven-luciferase assay; format: cell-based; settings: NIH3T3, 24 h, read-out: NIH3T3 Acta2-luc, IC50
Outline: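 NIH3T3 cells stably carrying a human ACTA2 promoter (−1000-1 bp)-luciferase reporter, grown to confluence, treated 24 hr with compound plus TGFβ1 at 9-point serial dilution. Luciferase read after lysis; IC50 by nonlinear regression.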

[5] = test system: CCD18lu human lung fibroblasts; assay: F-actin stress fiber formation (phalloidin staining); format: cell-based
[6] = test system: MKL1 in CCD18Lu human lung fibroblasts; assay: MKL1 nuclear translocation, immunofluorescent staining; format: cell-based; settings: 3 μM, 3 hours
Protocol: FIG. 3. Immunofluorescent staining of MKL1 in human lung fibroblasts. CCD18Lu human lung fibroblasts were treated with compounds for 3 hours and fixed and stained for MKL1, F-actin and DAPI. […] The Example 228 compound abolished nuclear accumulation of MKL1 in cultured human lung fibroblasts. CCD18Lu human lung fibroblasts were treated with the ROCK inhibitor (3 μM) for 3 hours and fixed and stained for MKL1, F-actin and DAPI.

[7] = test system: Detroit 562 cells; assay: Integrin αvβ6 mediated latent TGFβ activation (phospho-Smad2/3); format: cell-based; settings: with thrombin, 2 hours
Protocol: FIG. 5. ROCK inhibitor (Example 228) blocked integrin αvβ6 mediated latent TGFβ activation. Integrin αvβ6 positive cell line Detroit 562 cells were plated and treated with compounds in combination with parl ligand thrombin for 2 hours, lysed and activation of TGFβ signaling was detected by phosphorylation of transcription factors Smad2/3. Integrin αvβ6 mediated latent TGFβ activation requires ROCK activity (Jenkins et al., 2006). Activation of the latent TGF3 complex is a key step in regulating the biological availability of this molecule and its subsequent activities. Under tissue injury, extracellular protease cleavage of cell membrane receptor protease-activated receptor 1 (parl) leads to activation of Rho/ROCK, which in turn activates latent ECM associated TGFβ through cell membrane integrin αvβ6. […] Integrin αvβ6 positive cell line Detroit 562 cells were plated and treated with compounds in combination with parl ligand thrombin for 2 hours, lysed and activation of TGFβ signaling was detected by phosphorylation of transcription factors Smad2/3.

[8] = test system: ppMLC in SVEC4-10 cells; assay: Thrombin induced MLC phosphorylation western blot; format: cell-based, Mouse; settings: SVEC4-10 endothelial cells, increasing doses of thrombin, 10 min
Protocol: FIG. 7b. […] Mouse endothelial cell line SVEC4-10 cells were cultured and treated with increasing doses of thrombin in combination with ROCKi for 10 min. ppMLC signal was detected by western blot. […] Mouse endothelial cell line SVEC4-10 was cultured and treated with increasing doses of thrombin in combination with ROCK inhibitor for 10 min. ppMLC signal was detected by western blot. […] Collectively, the above data strongly supports the ROCK inhibitors of the invention as an effective intervention in fibrotic diseases.

[9] = 9 points 2-fold serial dilution
[10] = NIH3T3 cells, plus TGFβ1 for 24 hr
[11] = read-out: ROCK1 % inh. @ [conc]
[12] = read-out: ROCK2 % inh. @ [conc]

Sequence of Recombinant ROCK2 (amino acids 1-552) (O75116 1-552): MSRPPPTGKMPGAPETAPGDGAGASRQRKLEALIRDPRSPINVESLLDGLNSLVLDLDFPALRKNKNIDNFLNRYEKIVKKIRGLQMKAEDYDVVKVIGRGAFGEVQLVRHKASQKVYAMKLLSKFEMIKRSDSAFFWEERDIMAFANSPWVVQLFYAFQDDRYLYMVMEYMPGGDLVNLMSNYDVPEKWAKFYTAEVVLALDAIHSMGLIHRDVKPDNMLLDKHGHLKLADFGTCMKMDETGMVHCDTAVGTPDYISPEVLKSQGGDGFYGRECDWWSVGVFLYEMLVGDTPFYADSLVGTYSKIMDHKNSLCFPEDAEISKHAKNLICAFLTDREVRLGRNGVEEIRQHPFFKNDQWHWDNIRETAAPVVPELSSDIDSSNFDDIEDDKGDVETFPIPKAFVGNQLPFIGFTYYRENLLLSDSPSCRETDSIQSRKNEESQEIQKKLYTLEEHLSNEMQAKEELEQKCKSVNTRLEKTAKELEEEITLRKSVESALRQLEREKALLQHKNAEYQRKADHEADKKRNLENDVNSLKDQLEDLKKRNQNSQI
Sequence of Recombinant ROCK1 (amino acids 1-535) (Q13464 1-535): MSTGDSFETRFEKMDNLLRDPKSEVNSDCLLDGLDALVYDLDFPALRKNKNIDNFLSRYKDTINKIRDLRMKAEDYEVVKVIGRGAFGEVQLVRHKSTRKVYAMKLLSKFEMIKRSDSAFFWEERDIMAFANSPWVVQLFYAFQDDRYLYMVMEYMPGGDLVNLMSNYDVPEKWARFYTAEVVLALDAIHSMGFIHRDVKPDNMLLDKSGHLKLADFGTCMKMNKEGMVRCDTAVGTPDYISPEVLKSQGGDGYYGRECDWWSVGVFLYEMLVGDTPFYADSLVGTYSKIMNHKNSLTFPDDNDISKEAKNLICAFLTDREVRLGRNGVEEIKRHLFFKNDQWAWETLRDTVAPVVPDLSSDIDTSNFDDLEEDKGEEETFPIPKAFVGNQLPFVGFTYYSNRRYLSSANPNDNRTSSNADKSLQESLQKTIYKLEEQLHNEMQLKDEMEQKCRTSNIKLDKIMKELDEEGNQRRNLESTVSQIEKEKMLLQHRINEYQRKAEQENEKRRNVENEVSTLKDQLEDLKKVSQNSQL

Structure (SMILES) | IC50 [1, 9] [nM] | IC50 [2, 9] [nM] | IC50 ([3]; ppMlc (T18/S19)) [nM] | IC50 [4, 10] [nM] | IC50 [2] [nM] | IC50 [3] [nM] | IC50 ([4]; with TGFβ1, 24 hr) [nM] | inhibition at 1 µM [3] [%] | inhibition at 1 µM [2, 12] [%] | IC50 [1] [nM] | other results
c1cc(Nc2ccc3[nH]ncc3c2)nc(N2C3CCC2CNC3)n1 [Example 228, N-(2-(3,8-diazabicyclo[3.2.1]octan-8-yl)pyrimidin-4-yl)-1H-indazol-5-amine] | 4 | 3 | 69 | 151 |  |  |  |  |  |  | inhibition at 3 µM ([1]; 3 μM compound, read-out: ROCK1 % inh. @ [conc]): 98.5%; inhibition at 3 µM ([2]; 3 μM compound, read-out: ROCK2 % inh. @ [conc]): 101%; inhibition at 10 µM [3]: 83%; F-actin stress fiber formation [5]: phenotypically copied gene silencing; also recorded: inhibited; nuclear accumulation of MKL1 [6]: abolished; stress fiber formation ([6]; F-actin staining): efficiently cleared; integrin αvβ6 mediated latent TGFβ activation (phosphorylation of Smad2/3) [7]: blocked; thrombin induced phosphorylation of MLC [8]: potently inhibited
Cc1nc(N2C3CCC2CNC3)nc(Nc2ccc3[nH]ncc3c2)c1F [Example 302, N-(2-(3,8-diazabicyclo[3.2.1]octan-8-yl)-5-fluoro-6-methylpyrimidin-4-yl)-1H-indazol-5-amine] |  |  |  |  | 2.2 | 35 | 229 |  |  |  | inhibition at 0.5 µM [1, 11]: 99%; inhibition at 0.5 µM [2, 12]: 98%
Fc1cnc(N2CC3CCC(C2)N3)nc1Nc1ccc2[nH]ncc2c1 [Example 217, N-(2-(3,8-diazabicyclo[3.2.1]octan-3-yl)-5-fluoropyrimidin-4-yl)-1H-indazol-5-amine] | 6 | 28 | 127 | 963 |  |  |  | 51.2 |  |  | 
Clc1cnc(N2CC3CC2CN3)nc1Nc1ccc2[nH]ncc2c1 (stereo not drawn) [Example 194, N-(2-(2,5-diazabicyclo[2.2.1]heptan-2-yl)-5-chloropyrimidin-4-yl)-1H-indazol-5-amine] | 41 | 23 | 176 | 1540 |  |  |  | 31.6 | 98.3 |  | 
Cc1nc(N2C3CCC2CNC3)nc(Nc2ccc3[nH]ncc3c2)c1C [Example 29, N-(2-(3,8-diazabicyclo[3.2.1]octan-8-yl)-5,6-dimethylpyrimidin-4-yl)-1H-indazol-5-amine] |  |  |  |  |  | 147 | 1090 | 39.1 | 102 | 42 | 
Oc1nc(N2C3CCC2CNC3)nc(Nc2ccc3[nH]ncc3c2)c1F [Example 320, 6-((1H-indazol-5-yl)amino)-2-(3,8-diazabicyclo[3.2.1]octan-8-yl)-5-fluoropyrimidin-4-ol] |  |  |  |  | 18 | > 5000 | > 5000 |  |  | 8.7 | inhibition at 0.5 µM [1, 11]: 95%; inhibition at 0.5 µM [2, 12]: 97%
COc1cnc(N2C3CCC2CNC3)nc1Nc1ccc2[nH]ncc2c1 [Example 198, N-(2-(3,8-diazabicyclo[3.2.1]octan-8-yl)-5-methoxypyrimidin-4-yl)-1H-indazol-5-amine] |  |  |  |  | 5 | 57 | 413 | 38 | 104 | 4.1 | 
CC1CNCCN(c2ncc(F)c(Nc3ccc4[nH]ncc4c3)n2)C1 (stereo not drawn) [Example 218, N-(5-fluoro-2-(6-methyl-1,4-diazepan-1-yl)pyrimidin-4-yl)-1H-indazol-5-amine] | 65 |  | 430 | 6110 |  |  |  | 53 | 99.5 |  | 
Fc1cnc(N2CCNCC2)nc1Nc1ccc2[nH]ncc2c1 [Example 214, N-(5-fluoro-2-(piperazin-1-yl)pyrimidin-4-yl)-1H-indazol-5-amine] | 38 | 26 | 323 | 1250 |  |  |  |  |  |  | inhibition at 10 µM [3]: 63%
Cc1cc(Nc2ccc3[nH]ncc3c2)nc(N2CCCNCC2C)n1 (stereo not drawn) [Example 117, N-(6-methyl-2-(2-methyl-1,4-diazepan-1-yl)pyrimidin-4-yl)-1H-indazol-5-amine] | 15 | 45 | 168 | 1270 |  |  |  | 50.6 |  |  | 
